Results taken from BindingDB's records for doi:10.1016/j.bmcl.2005.12.017 (Abbott Laboratories, 2006).

target: T1, RAC-alpha serine/threonine-protein kinase [139-480,S378A,S381A,T450D,S473D] (Homo sapiens, UniProt P31749, S378A/S381A/S473D/T450D); assay: Akt Kinase Assay; conditions: not given
T1 construct: 139-480
Description: The kinase assay uses His-Akt1 and a biotinylated peptide as substrate. The biotinylated peptides were immobilized on streptavidin-coated FLASH plates. After reaction, the 33P-phosphopeptide captured on the FLASH plates was measured with a TopCount Packard Instruments […] (Packard Instruments, Boston, MA).

T1 sequence (P31749 139-480 S378A/S381A/T450D/S473D): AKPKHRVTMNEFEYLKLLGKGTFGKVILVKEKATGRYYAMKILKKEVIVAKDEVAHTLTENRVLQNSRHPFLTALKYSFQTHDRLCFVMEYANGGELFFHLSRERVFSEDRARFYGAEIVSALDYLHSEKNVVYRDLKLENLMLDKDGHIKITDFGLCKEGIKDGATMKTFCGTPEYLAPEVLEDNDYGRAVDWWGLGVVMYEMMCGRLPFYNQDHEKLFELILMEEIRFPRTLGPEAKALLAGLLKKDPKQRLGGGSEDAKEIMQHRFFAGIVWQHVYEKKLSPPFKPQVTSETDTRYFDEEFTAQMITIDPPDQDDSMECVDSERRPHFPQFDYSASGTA

Compound | IC50
N[C@H](COc1cncc(/C=C/c2ccnc(-n3ccc4ccccc43)c2)c1)Cc1c[nH]c2ccccc12 [1-{4-[(E)-2-{5-[(2S)-2-amino-3-(1H-indol-3-yl)propoxy]pyridin-3-yl}ethenyl]pyridin-2-yl}-1H-indole] | 3340 nM
N[C@H](COc1ccc(/C=C/c2ccncc2)cn1)Cc1ccccc1 [2-[(2S)-2-amino-3-phenylpropoxy]-5-[(E)-2-(pyridin-4-yl)ethenyl]pyridine] | 43000 nM
NCC(c1ccccc1)c1cncc(/C=C/c2ccncc2)c1 (configuration not stated) [2-phenyl-2-{5-[(E)-2-(pyridin-4-yl)ethenyl]pyridin-3-yl}ethan-1-amine] | 284 nM
N[C@H](COc1cncc(/C=C/c2ccncc2)c1)Cc1csc2ccccc12 [3-[(2S)-2-amino-3-(1-benzothiophen-3-yl)propoxy]-5-[(E)-2-(pyridin-4-yl)ethenyl]pyridine] | 142 nM
COc1cc(/C=C/c2cncc(OC[C@@H](N)Cc3c[nH]c4ccccc34)c2)ccn1 [3-[(2S)-2-amino-3-({5-[(E)-2-(2-methoxypyridin-4-yl)ethenyl]pyridin-3-yl}oxy)propyl]-1H-indole] | 2670 nM
N[C@H](COc1cncc(/C=C/c2ccnc(Oc3ccccc3)c2)c1)Cc1c[nH]c2ccccc12 [3-[(2S)-2-amino-3-({5-[(E)-2-(2-phenoxypyridin-4-yl)ethenyl]pyridin-3-yl}oxy)propyl]-1H-indole] | 6450 nM
Cn1cc(C[C@H](N)COc2cncc(/C=C/c3ccncc3)c2)c2ccccc21 [3-[(2S)-2-amino-3-({5-[(E)-2-(pyridin-4-yl)ethenyl]pyridin-3-yl}oxy)propyl]-1-methyl-1H-indole] | 500 nM
N[C@H](COc1cncc(/C=C/c2ccnc(SCc3ccccc3)c2)c1)Cc1c[nH]c2ccccc12 [3-[(2S)-2-amino-3-({5-[(E)-2-[2-(benzylsulfanyl)pyridin-4-yl]ethenyl]pyridin-3-yl}oxy)propyl]-1H-indole] | 3110 nM
N[C@H](COc1cncc(/C=C/c2ccnc(Sc3ccccc3)c2)c1)Cc1c[nH]c2ccccc12 [3-[(2S)-2-amino-3-({5-[(E)-2-[2-(phenylsulfanyl)pyridin-4-yl]ethenyl]pyridin-3-yl}oxy)propyl]-1H-indole] | 6350 nM
N[C@H](COc1cccc(/C=C/c2ccncc2)n1)Cc1c[nH]c2ccccc12 [3-[(2S)-2-amino-3-({6-[(E)-2-(pyridin-4-yl)ethenyl]pyridin-2-yl}oxy)propyl]-1H-indole] | 23300 nM
N[C@H](COc1cnc(Cl)c(/C=C/c2ccncc2)c1)Cc1c[nH]c2ccccc12 [3-[(2S)-2-amino-3-({6-chloro-5-[(E)-2-(pyridin-4-yl)ethenyl]pyridin-3-yl}oxy)propyl]-1H-indole] | 23 nM
N[C@H](COc1cncc(/C=C/c2ccnc(NCc3ccccc3)c2)c1)Cc1c[nH]c2ccccc12 [4-[(E)-2-{5-[(2S)-2-amino-3-(1H-indol-3-yl)propoxy]pyridin-3-yl}ethenyl]-N-benzylpyridin-2-amine] | 147 nM
N[C@H](COc1cncc(/C=C/c2ccnc(NC3CC3)c2)c1)Cc1c[nH]c2ccccc12 [4-[(E)-2-{5-[(2S)-2-amino-3-(1H-indol-3-yl)propoxy]pyridin-3-yl}ethenyl]-N-cyclopropylpyridin-2-amine] | 69 nM
CCNc1cc(/C=C/c2cncc(OC[C@@H](N)Cc3c[nH]c4ccccc34)c2)ccn1 [4-[(E)-2-{5-[(2S)-2-amino-3-(1H-indol-3-yl)propoxy]pyridin-3-yl}ethenyl]-N-ethylpyridin-2-amine] | 163 nM
CNc1cc(/C=C/c2cncc(OC[C@@H](N)Cc3c[nH]c4ccccc34)c2)ccn1 [4-[(E)-2-{5-[(2S)-2-amino-3-(1H-indol-3-yl)propoxy]pyridin-3-yl}ethenyl]-N-methylpyridin-2-amine] | 176 nM
Nc1cc(/C=C/c2cncc(OC[C@@H](N)Cc3c[nH]c4ccccc34)c2)ccn1 [4-[(E)-2-{5-[(2S)-2-amino-3-(1H-indol-3-yl)propoxy]pyridin-3-yl}ethenyl]pyridin-2-amine] | 121 nM
N[C@H](CCc1cnc(Cl)c(/C=C/c2ccncc2)c1)Cc1c[nH]c2ccccc12 [(2R)-4-{6-chloro-5-[(E)-2-(pyridin-4-yl)ethenyl]pyridin-3-yl}-1-(1H-indol-3-yl)butan-2-amine] | 198 nM
N[C@@H](Cc1ccccc1)C(=O)Nc1cncc(/C=C/c2ccncc2)c1 [(2S)-2-amino-3-phenyl-N-{5-[(E)-2-(pyridin-4-yl)ethenyl]pyridin-3-yl}propanamide] | 3200 nM
N[C@H](CNc1cncc(/C=C/c2ccncc2)c1)Cc1c[nH]c2ccccc12 [N-[(2S)-2-amino-3-(1H-indol-3-yl)propyl]-5-[(E)-2-(pyridin-4-yl)ethenyl]pyridin-3-amine] | 9.7 nM
N[C@H](CNc1cnc(Cl)c(/C=C/c2ccncc2)c1)Cc1c[nH]c2ccccc12 [N-[(2S)-2-amino-3-(1H-indol-3-yl)propyl]-6-chloro-5-[(E)-2-(pyridin-4-yl)ethenyl]pyridin-3-amine] | 19 nM
N[C@H](CNc1cnc(Cl)c(/C=C/c2ccncc2)c1)CC1CNc2ccccc21 (stereo partly drawn) [N-[(2S)-2-amino-3-(2,3-dihydro-1H-indol-3-yl)propyl]-6-chloro-5-[(E)-2-(pyridin-4-yl)ethenyl]pyridin-3-amine] | 79 nM
Brc1ccc(/C=C/CNCCOc2cncc(/C=C/c3ccncc3)c2)cc1 [[(2E)-3-(4-bromophenyl)prop-2-en-1-yl][2-({5-[(E)-2-(pyridin-4-yl)ethenyl]pyridin-3-yl}oxy)ethyl]amine] | 32200 nM
CN(C)[C@H](COc1cncc(/C=C/c2ccncc2)c1)Cc1c[nH]c2ccccc12 [[(2S)-1-(1H-indol-3-yl)-3-({5-[(E)-2-(pyridin-4-yl)ethenyl]pyridin-3-yl}oxy)propan-2-yl]dimethylamine] | 1100 nM

same assay, conditions: pH 7.5; 22 °C

Compound | IC50
CC(C)[C@H](N)COc1cncc(/C=C/c2ccncc2)c1 [3-[(2S)-2-amino-3-methylbutoxy]-5-[(E)-2-(pyridin-4-yl)ethenyl]pyridine] | 19300 nM
N[C@@H](CCc1ccccc1)COc1cncc(/C=C/c2ccncc2)c1 [3-[(2S)-2-amino-4-phenylbutoxy]-5-[(E)-2-(pyridin-4-yl)ethenyl]pyridine] | 8020 nM
C(=C\c1cncc(OC[C@@H]2CCN2)c1)/c1ccncc1 [3-[(2S)-azetidin-2-ylmethoxy]-5-[(E)-2-(pyridin-4-yl)ethenyl]pyridine] | 10900 nM
C(=C\c1cncc(OC[C@@H]2CCCN2)c1)/c1ccncc1 [3-[(E)-2-(pyridin-4-yl)ethenyl]-5-[(2S)-pyrrolidin-2-ylmethoxy]pyridine] | 23900 nM

Second part, the compound after the results:

IC50 | Compound
6760 nM | N[C@H](COc1cncc(/C=C/c2ccncc2)c1)C(c1ccccc1)c1ccccc1 [3-[(2S)-2-amino-3,3-diphenylpropoxy]-5-[(E)-2-(pyridin-4-yl)ethenyl]pyridine]
324 nM | N[C@H](COc1cncc(/C=C/c2ccncc2)c1)Cc1cccc2ccccc12 [3-[(2S)-2-amino-3-(naphthalen-1-yl)propoxy]-5-[(E)-2-(pyridin-4-yl)ethenyl]pyridine]
146 nM | N[C@H](COc1cncc(/C=C/c2ccncc2)c1)Cc1ccc2ccccc2c1 [3-[(2S)-2-amino-3-(naphthalen-2-yl)propoxy]-5-[(E)-2-(pyridin-4-yl)ethenyl]pyridine]
320 nM | N#Cc1cccc(C[C@H](N)COc2cncc(/C=C/c3ccncc3)c2)c1 [3-[(2S)-2-amino-3-({5-[(E)-2-(pyridin-4-yl)ethenyl]pyridin-3-yl}oxy)propyl]benzonitrile]
875 nM | N[C@H](COc1cncc(/C=C/c2ccncc2)c1)Cc1cccc(O)c1 [3-[(2S)-2-amino-3-({5-[(E)-2-(pyridin-4-yl)ethenyl]pyridin-3-yl}oxy)propyl]phenol]
